Series [1] relates to GFP-Kpnα2 localisation in CaSki cells. The series is described as follows: GFP-Kpnα2 nuclear translocation, fluorescence microscopy. It counts as cell-based. Conditions: 10 μM. As to the method:
For controls, equivalent volumes of DMSO were used. Cells were fixed with 4% paraformaldehyde prior to fluorescence microscopy and cell nuclei were stained with 0.5 μg/ml DAPI. Due to fluorescence emitted by Compound A in the GFP channel, the Compound A signal had to be excluded from the GFP signal by separating the emission spectra. A Zeiss LSM 510 Meta confocal microscope was used and images captured using the ZEN 2009 camera with associated AxioVision software (version 4.7). Pictures were edited using the Zeiss image browser. For quantification, 100 cells from each condition were analysed using Image J.
Compound A with cell-killing ability was tested for its ability to block nuclear import using a fluorescence-based screening assay. The assay was based on the fact that Kpnα enters the nucleus in a complex with Kpnβ1. Kpnα2 (Impα1 or Rch1) was GFP-tagged (FIG. 8) and its localisation monitored after treatment with the various compounds, via fluorescence microscopy. […] It was noted that Compound A fluoresced itself, and thus the compound fluorescence signal had to be excluded from the GFP-Kpnα2 signal by separating the emission spectra.

The test system of a further series is Cytochrome C release. The series is described as follows: Mitochondrial and cytoplasmic protein extraction, Cytochrome C Western Blot. It counts as cell-based. The following applies: varying concentrations, 24 hours (FIG. 27). As to the method:
Cells were grown in 10 cm plates and treated with varying concentrations of Compound A for 24 hours. Cells were lysed in subcellular fractionation buffer (250 mM sucrose, 20 mM HEPES, 10 mM KCl, 1.5 mM MgCl2, 1 mM EDTA, 1 mM EGTA, 1 mM DTT and 1× complete protease inhibitor cocktail (Roche)), passed through a 25G needle and incubated on ice for 20 minutes. The nuclear pellet was obtained after centrifugation at 720 g for 5 minutes. The supernantant was further centrifuged at 10,000 g and the resulting supernatant used as the cytoplasmic fraction. The pellet containing the mitochondrial fraction was washed in subcellular fractionation buffer and passed through a 25G needle. The mitochondrial fraction was pelleted at 10,000 g and resuspended in RIPA buffer. Western Blot analysis was performed using a mouse anti-Cytochrome C antibody (BD Pharmingen, San Diego, Calif.), and anti-β-tubulin (H235) (sc-9104, Santa Cruz) and anti-Pereroxiredoxin-3 (PRDX-3) (P1247, Sigma) antibodies were used as protein loading controls for cytoplasmic and mitochondrial fractions, respectively.
On the technique in general: In western blotting, separated proteins are transferred to a membrane and probed.

In series [2] the test system is AP-1 transcriptional activity in CaSki cells. Nature of the series: AP-1 luciferase reporter assay. The class given is cell-based. The following applies: 10 or 15 μM, 24 hours (FIG. 15). The protocol:
To assay for AP-1 and p65 luciferase activities, 40 000 CaSki cells were plated in 24-well plates, and transfected with 50 ng of an API luciferase reporter (containing four copies of the AP-1 binding site) or 50 ng of a p65 luciferase reporter (containing five copies of the p65 binding site, Clontech, CA, USA) and 5 ng pRL-TK (encoding Renilla luciferase, Promega), using 0.16 μl TransFectin™ lipid reagent (Bio-Rad, Hercules, Calif., USA). The following day cells were treated with 10 or 15 μM Compound A. Luciferase activity was measured 24 hours after Compound A treatment using the Dual-LuciferaseR Reporter assay system (Promega, Madison, Wis., USA), according to the manufacturers' instructions. Luciferase readings were measured using the Veritas™ microplate luminometer (Promega) and luciferase readings were normalised to Renilla luciferase in the same extract.
A general note: In a reporter assay the amount or activity of a reporter protein is the signal.

The nature of the next series: Solubility. It counts as physicochemical. The following applies: in dimethylsulfoxide (DMSO).
In series [3] the test system is CaSki cervical cancer cell line. The series is described as follows: MTT assay for cell viability, IC50 determination. The class given is cell-based. Conditions: MTT, read-out: IC50. The gist of the method:
(§1)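 Read-out: MTT formazan absorbance, 595 nm. Treatment lasted 48 h across a concentration range; IC50 was calculated by curve fitting.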
(In general: Tetrazolium dyes change colour on reduction, which living cells bring about.)

The subject of series [4] is KYSE180 oesophageal cancer cell line. The series is described as follows: MTT assay for cell viability, IC50 determination. The class given is cell-based. The following applies: Homo sapiens, KYSE-180, 48 hours. The method in brief: as §1
Series [5] concerns FG0 normal skin fibroblasts (non-cancer). The series is described as follows: MTT assay for cell viability, IC50 determination. The class given is cell-based. The following applies: Skin fibroblast, 48 hours. The gist of the method:
as §1

Series [6] deals with DMB normal skin fibroblasts (non-cancer). The series is described as follows: MTT assay for cell viability, IC50 determination. It counts as cell-based. Conditions: Skin fibroblast; DMB non-cancer; 48 hours, MTT. The gist of the method:
as §1

Series [7] deals with WHCO6 oesophageal carcinoma cell line. The series is described as follows: MTT assay for cell viability, IC50 determination. It counts as cell-based. The following applies: Homo sapiens, 48 hours. The method in brief:
as §1

In series [8] the test system is CP70 ovarian cancer cell line. Nature of the series: MTT assay for cell viability, IC50 determination. Conditions: 48 hours. It counts as cell-based. The gist of the method: as §1
Series [9] relates to WHCO5 oesophageal cancer cell line. The series is described as follows: MTT assay for cell viability, IC50 determination. It counts as cell-based, human. Conditions: MTT. As to the method: Cells were plated in 96-well plates and treated with varying concentrations of a test compound for 48 hours, after which MTT dye, 3-(4,5-dimethylthiazol-2-yl)-2,5-diphenyltetrazolium bromide (Sigma), was added, and crystals solubilised 4 hours later using Solubilisation Reagent (10% SLS in 0.01 M HCl). Absorbencies were measured at 595 nm the following day using a BioTek microplate spectrophotometer (Winooski, Vt., USA) and IC50 curves were generated using GraphPad Prism.

Series [10] is described as follows: Body mass of tumour-bearing mice during treatment. The class given is in vivo. Conditions: WHCO6 tumour-bearing mice; 50 mg/kg i.p. over the course of the treatment (FIG. 29). As to the method: WHCO6 cells were harvested and resuspended in PBS. For tumour inoculation, cancer cells (5×10^6 per mouse) were s.c. implanted into the hind flanks of female nude mice. Once tumours had reached a palpable size, drug treatment was initiated, where tumour-bearing mice were randomized and dosed i.p. with either vehicle (DMSO) or Compound A (50 mg/kg), every 2-3 days for 3 weeks. Tumour volumes were measured twice a week, using calipers, and tumour volume estimated using the following formula: volume=(length×width×width)/2. Mice were sacrificed 3 weeks after the commencement of drug treatment.

Another series relates to CaSki cells. The series is described as follows: Cell cycle analysis. It counts as cell-based. Conditions: 24 hours (FIGS. 24 and 25). As to the method: CaSki cells were plated in 60 mm dishes and treated with the appropriate concentration of Compound A. Cells were harvested 24 hours after treatment, and fixed in 100% ethanol, after which they were stained with Propidium Iodide and the cell cycle profiles analysed using a BD flow cytometer (BD Biosciences, NJ, USA). Data analysis was performed using ModFit 3.3 software.

Experimental findings from patent US10220033B2, “Substituted benzoxazepine for cancer therapy” (University of Cape Town, priority 2014, dated 2019) are described below.

As usually defined, the pIC50 is the IC50 on a negative log10 scale, so that one unit is a factor of ten.

The structures appear in SMILES notation. pIC50: −log10 of the molar value. Like-named read-outs stand apart in the source and are kept apart here.

Take `CN(C)CCCn1c(N)c(-c2nc3ccccc3[nH]2)c2nc3ccccc3nc21` [Compound A, 3-(1H-benzimidazol-2-yl)-1-(3-dimethylaminopropyl)pyrrolo[5,4-b]quinoxalin-2-amine]: the “number of cells containing cytoplasmic GFP-Kpnα2” value in series [1] (24 hours (FIG. 9)) was “significant increase”. Further, the “GFP-Kpnα2 nuclear fluorescence signal” value in series [1] (24 hours (FIG. 10)) is recorded as “significant decrease”. Also, the “release of Cytochrome C from the mitochondria into the cytoplasm” value in the series with Cytochrome C release is recorded as “release of Cytochrome C from the mitochondria into the cytoplasm, in a dose-dependent manner”. Also, in series [2], the AP-1 luciferase activity entry is on record as “decreased in a dose-dependent manner”. Besides, the solubility result in “Solubility” was “soluble”. The pIC50 in [3] (48 hours) is 5.03; in series [3] (Homo sapiens, Ca-Ski, 48 h) it was 5.03; in series [4], 4.80; in series [5] it was 4.67; in series [6], 4.50; in series [7], 4.92. Moreover, the pIC50 in series [8] is 5.11; in series [9] (48 hours), 5.04; in [9] (Homo sapiens, 48 h) it was 5.04. For the same molecule, the “body mass of the mice” value in series [10] was “did not change”. Besides, in the series on CaSki cells, the “percentage of cells in the G1 stage of the cell cycle” value is on record as “increase”. Moreover, the “percentage of cells in the S and G2/M stages” value with CaSki cells is “decrease”.
